{"source": "patent US20070232575A1", "about": "“Treatment of Pulmonary Artery Hypertension with Dhea, Dheas, Dhea Analogs, or Dhea Derivatives” (priority 2004, published 2007)", "key": {"PASMCs from CH rats": {"tested_on": "PASMCs from CH rats", "test": "In vitro DHEA treatment of PASMCs, resting [Ca2+]i, with K channel blockers and pathway inhibitors", "assay_type": "cell-based, rat", "experimental": "(§1) The heart and lungs were removed and intrapulmonary arteries (IPAs) (150-300 μm of internal diameter) were then dissected. The adventitial and intimal layers were removed. For contraction experiments, rings (3 mm in length) were prepared.\nAs mentioned earlier, Ca^2+ is thought to play an important role in the response to chronic hypoxia. To measure the effects of DHEA on [Ca^2+]i of individual PASMCs, a [Ca^2+]i-sensitive fluorophore, indo-1 (Calbiochem, San Diego, Calif.), was employed. […] The recording system included a Nikon Diaphot inverted microscope fitted with epifluorescence.\nTo further examine how DHEA functions to decrease the [Ca^2+]i in PASMCs, the following experiment was performed."}, "[1]": {"tested_on": "chronic hypoxic-pulmonary artery hypertension (CH-PAH)", "test": "Echocardiography: right ventricular (RV) wall thickness in CH rats", "assay_type": "in vivo, rat", "experimental": "(§2) The rat model experiments were performed as follows. Adult male Wistar rats (220-240 g) were randomized into five groups. […] Intravascular administration was performed via the catheter inserted in the right jugular vein.\nTo perform this procedure, the rats were first anaesthetized."}, "acute hypoxic challenge": {"tested_on": "acute hypoxic challenge", "test": "Pressure response of the PA to acute hypoxic challenge", "assay_type": "in vivo, rat", "conditions": "3 weeks of hypoxia under DHEA treatment; response disappeared without DHEA", "procedure": "To determine the effect of the chronic hypoxia treatment-induced CH-PAH and to determine the effect of DHEA administration on PAP, the following PAP measurement method was used. Rats were anaesthetized with ketamine 50 mg/kg and xylazine 10 mg/kg by i.p. injection. […] The effect of DHEA on the systemic blood pressure was controlled by another catheter placed into the left carotid artery. Throughout all the experiments, heart rate and oxygen saturation were monitored. Acute hypoxic stress with fraction of inspired O2 of 10% were applied by administration of an air plus nitrogen gas mixture. The fraction of inspired O2 was monitored with an oxygen analyzer (Servomex, Crowborough, Great Britain), and the effects on the PAP were measured over a 10-15 minute period."}, "[2]": {"conditions": "cited from earlier work"}, "BKCa [3]": {"molecular_target": "T1, BKCa (Rattus norvegicus, UniProt Q62976)", "T1 construct": "from tissue; host or cells: intrapulmonary artery rings of adult male Wistar rats", "T1 sequence (Q62976 whole entry)": "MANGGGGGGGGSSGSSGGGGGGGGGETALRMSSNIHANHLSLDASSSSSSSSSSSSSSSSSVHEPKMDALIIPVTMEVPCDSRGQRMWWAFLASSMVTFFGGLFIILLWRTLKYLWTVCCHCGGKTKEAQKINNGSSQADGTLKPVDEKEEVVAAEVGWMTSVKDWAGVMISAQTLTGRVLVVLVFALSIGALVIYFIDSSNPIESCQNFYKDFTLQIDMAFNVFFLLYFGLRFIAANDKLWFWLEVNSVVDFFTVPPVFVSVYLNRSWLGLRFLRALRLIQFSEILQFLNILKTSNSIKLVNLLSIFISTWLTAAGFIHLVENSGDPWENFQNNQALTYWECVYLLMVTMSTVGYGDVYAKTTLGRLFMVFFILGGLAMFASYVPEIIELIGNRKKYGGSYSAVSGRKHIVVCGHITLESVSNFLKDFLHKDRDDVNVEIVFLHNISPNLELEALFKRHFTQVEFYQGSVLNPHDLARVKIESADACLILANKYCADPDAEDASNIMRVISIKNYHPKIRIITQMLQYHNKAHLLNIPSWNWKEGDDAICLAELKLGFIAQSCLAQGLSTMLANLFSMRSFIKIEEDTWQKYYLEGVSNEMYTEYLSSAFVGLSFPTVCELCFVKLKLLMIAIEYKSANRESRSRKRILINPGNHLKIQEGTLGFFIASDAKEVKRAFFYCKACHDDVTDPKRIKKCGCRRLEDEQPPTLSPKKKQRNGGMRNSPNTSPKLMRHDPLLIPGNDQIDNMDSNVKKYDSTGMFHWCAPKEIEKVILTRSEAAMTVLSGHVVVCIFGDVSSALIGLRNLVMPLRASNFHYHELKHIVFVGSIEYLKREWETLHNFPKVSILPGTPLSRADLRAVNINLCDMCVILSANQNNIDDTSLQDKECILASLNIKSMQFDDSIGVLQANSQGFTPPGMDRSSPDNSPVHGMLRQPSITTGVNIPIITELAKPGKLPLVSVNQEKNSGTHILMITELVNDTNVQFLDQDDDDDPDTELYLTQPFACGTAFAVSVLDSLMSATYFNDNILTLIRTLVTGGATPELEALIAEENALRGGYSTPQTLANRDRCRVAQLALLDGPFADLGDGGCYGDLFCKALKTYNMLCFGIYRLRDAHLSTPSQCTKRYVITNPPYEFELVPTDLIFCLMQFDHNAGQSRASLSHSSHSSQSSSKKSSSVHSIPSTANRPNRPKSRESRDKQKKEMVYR", "T1 sequence (P97678 whole entry partner)": "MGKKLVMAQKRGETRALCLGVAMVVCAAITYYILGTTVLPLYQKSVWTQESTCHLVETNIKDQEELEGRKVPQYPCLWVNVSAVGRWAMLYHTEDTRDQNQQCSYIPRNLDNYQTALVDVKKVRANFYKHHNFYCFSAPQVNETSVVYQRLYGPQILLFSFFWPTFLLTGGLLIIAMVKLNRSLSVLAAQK", "test": "IbTx-induced contraction of IPA rings from CH-DHEA rats", "assay_type": "in vivo", "conditions": "for increase of tension induced by IbTx: rings from CH-DHEA rats compared with control and CH rats", "experimental": "Statistical analyses for the experiments described herein were performed by using NCSS 5.0 software (NCSS, Kaysville, Utah). Values were expressed as mean±SEM. Contractions were expressed as a percentage of K^+-rich (80 mM) solution-induced contractions. Intergroup differences were assessed by a repeated-measures ANOVA or factorial ANOVA, as appropriate. Post hoc analysis used a Fisher multiple comparison test. For some comparisons, the Pearson product moment correlation coefficient between pairs of variables was used as indicated (ORIGIN 5.0, OriginLab, Northampton, Mass.). Regarding the number of experiments, (n) refers to the number of rings or cells and (N) to the number of animals. Differences were considered significant when P<0.05.\nas §1\nCH induces remodeling of the intrapulmonary artery (IPA) in the rat model of CH-PAH. To examine the changes in the IPA wall upon CH exposure, the following method was performed. Isometric contractions were measured in rings from IPAs that were mounted in vertical 5-ml organ baths of a computerized isolated organ bath system (IOX, EMKA Technologies, Paris), as described in Bonnet, S., et al. (2001, Am. J. Physiol. 281, L183-L192, which is incorporated by reference herein in its entirety). Baths were filled with Krebs-Henseleit solution (composition in mM: 118.4 NaCl/4.7 KCl/2.5 CaCl2/1.2 MgSO4/1.2 KH2PO4/25 NaHCO3/11.1 D-glucose, pH 7.4). The baths were maintained at 37° C. and bubbled with a 95% O2/5% CO2 gas mixture. […] A concentration increment was made once the maximal contractile effect of the preceding concentration had been recorded."}, "IPA wall": {"tested_on": "IPA wall", "test": "CH-induced intrapulmonary artery (IPA) wall remodeling, media layer thickness", "assay_type": "in vivo, rat", "experimental": "Lung sections were formalin-fixed in preparation for histology studies. PA external diameter (PAED), PA internal diameter (PAID), and percentage vessel wall thickness (PAED−PAID)/PAED×100) were measured in small- and medium-sized PAs (80-150 μm). Each group was comprised of four rats, and 10 measures were made per rat by an investigator blinded to the treatment groups.\nCH induces remodeling of the intrapulmonary artery (IPA) in the rat model of CH-PAH. To examine the changes in the IPA wall upon CH exposure, the following method was performed. Isometric contractions were measured in rings from IPAs that were mounted in vertical 5-ml organ baths of a computerized isolated organ bath system (IOX, EMKA Technologies, Paris), as described in Bonnet, S., et al. (2001, Am. J. Physiol. 281, L183-L192, which is incorporated by reference herein in its entirety). Baths were filled with Krebs-Henseleit solution (composition in mM: 118.4 NaCl/4.7 KCl/2.5 CaCl2/1.2 MgSO4/1.2 KH2PO4/25 NaHCO3/11.1 D-glucose, pH 7.4). The baths were maintained at 37° C. and bubbled with a 95% O2/5% CO2 gas mixture. The tissues were set at optimal length by equilibration against a passive load of 10 mN for rings obtained from normoxic rats and 20 mN for rings obtained from hypoxic rats (Jones, J. E., et al. (2002) Am. J. Physiol. 283, H364-H371, which is incorporated by reference herein in its entirety). A cumulative concentration-response curve was then constructed. A concentration increment was made once the maximal contractile effect of the preceding concentration had been recorded."}, "[4]": {"tested_on": "chronic hypoxic-pulmonary artery hypertension (CH-PAH)", "test": "Mean pulmonary arterial pressure (PAP) in chronic hypoxic (CH-PAH) rat model", "assay_type": "in vivo", "experimental": "To study the mechanisms of PAH and its possible treatments, an animal model was utilized. The placement of rats in a hypobaric chamber for 7 to 21 days induced chronic hypoxia, resulting in CH-PAH, a useful model system for studying mammalian PAH.\nas §2"}, "BKCa [5]": {"tested_on": "BKCa", "test": "Immunoblot of BKCa in arterial pulmonary extracts", "assay_type": "in vivo, rat", "conditions": "oral DHEA 3 weeks", "experimental": "The level of expression of BKCa was examined using an immunoblot. Arterial pulmonary extracts were prepared from a pool of eight rats per sample and condition. Three separate samples were taken for each condition. The samples were ground in liquid N2, homogenized in RIPA buffer (1% Nonidet P-40/0.5% deoxycholate sodium/0.1% SDS/10 μg/ml aprotinin/100 μg/ml leupeptin/1 mM 4-(2-aminoethyl)benzenesulfonylfluoride in PBS) with a polytron (Bioblock Scientific), and then centrifuged. The extract was verified by Coomassie blue staining. Each sample was loaded at 10 μg in 7.5% resolving acrylamide gel and electrotransferred on to a nylon membrane. Immunoblot analyses used rabbit mAb against rat BKCa (Alomone Labs, Jerusalem, no. APC-021 at 1/500) and mouse monoclonal anti-actin (Santa Cruz Biotechnology, clone C-2 at 1/500). […] All experiments were repeated two or three times. Quantification of the data was performed using the SCION IMAGE program from the National Institutes of Health."}, "[6]": {"conditions": "after 1 or 2 wk of hypoxia exposure with oral DHEA"}}, "note": "Entries after “also recorded” stand apart in the source; their conditions may differ.", "data": [{"smiles": "C[C@]12CC[C@H](O)CC1=CC[C@@H]1[C@@H]2CC[C@]2(C)C(=O)CC[C@@H]12", "note": "[DHEA, dehydroepiandrosterone]", "values": [{"measurement": "effect on [Ca2+]i", "setting": "PASMCs from CH rats; DHEA 100 μM, PASMCs from normoxic, normoxic-DHEA and CH-DHEA rats", "result": "did not alter"}, {"measurement": "resting [Ca2+]i value", "setting": "PASMCs from CH rats; PASMCs from CH rats, 15 minute in vitro 100 μM DHEA, before 143±7", "result": "82 ± 3", "unit": "nM"}, {"measurement": "effect on resting [Ca2+]i", "setting": "PASMCs from CH rats; PASMCs from CH rats, in vitro DHEA 100 μM", "result": "significant decrease; also recorded: decrease of the resting [Ca^2+]i"}, {"measurement": "RV wall thickness", "setting": "[1]; CH-DHEA rats, oral DHEA during 3 wk hypoxia, untreated CH 2.74±0.5", "result": "1.6±0.03", "unit": "mm"}, {"measurement": "RV wall thickness, CH-DHEA vs control rats", "setting": "[1]; [6]", "result": "no difference"}, {"measurement": "effect on RV wall thickness / right ventricle hypertrophy (prevention)", "setting": "[1]; oral DHEA for 3 weeks during chronic hypoxia", "result": "significant preventive effect; also recorded: decreased; also recorded: almost entirely prevent"}, {"measurement": "effect on RV wall thickness", "setting": "[1]; oral DHEA, normoxic rats", "result": "no effect"}, {"measurement": "RV wall thickness", "setting": "[1]; rats 3 weeks in CH, oral DHEA during the last week, no DHEA 2.97±0.4", "result": "1.91±0.2", "unit": "mm"}, {"measurement": "pressure response to an acute hypoxic challenge", "setting": "acute hypoxic challenge", "result": "restored"}, {"measurement": "toxicity in short- and long-term human studies", "setting": "[2]; Baulieu et al. 2000", "result": "without major toxicity"}, {"measurement": "safety of large amounts in human patients", "setting": "[2]; Tummala & Svec 1999", "result": "safely administered"}, {"measurement": "increase of tension induced by IbTx", "setting": "BKCa [3]; 100 nM IbTx", "result": 52, "unit": "%"}, {"measurement": "increase of tension induced by IbTx", "setting": "BKCa [3]; 300 nM IbTx", "result": 55, "unit": "%"}, {"measurement": "sensitivity/reactivity of IPA rings to IbTx", "setting": "BKCa [3]; rings from CH-DHEA rats vs CH rats", "result": "increase the sensitivity for IbTx; also recorded: increase in the IbTx response; also recorded: higher reactivity to IbTx"}, {"measurement": "increase in media layer thickness compared with control rats", "setting": "IPA wall; CH-DHEA rats, 3 weeks, CH untreated 33%", "result": 11, "unit": "%"}, {"measurement": "effect on PA wall remodeling (prevention)", "setting": "IPA wall; oral DHEA 3 weeks during CH", "result": "significant protective effect; also recorded: almost entirely prevent; also recorded: prevented the PA wall remodeling"}, {"measurement": "effect on PA wall remodeling (reversal)", "setting": "IPA wall; oral DHEA during last week of 3 weeks CH", "result": "partially but significantly reversed; also recorded: decreased the PA remodeling"}, {"measurement": "effect of additional intravascular DHEA on PAP", "setting": "[4]; 3-week CH-DHEA treated rats", "result": "did not further reduce PAP; also recorded: no effect"}, {"measurement": "PAP", "setting": "[4]; 3-wk CH rats, ten minutes after acute intravascular DHEA 3 mg/kg, before 34.5±1.7", "result": "24.4±2.5", "unit": "mmHg"}, {"measurement": "dose dependence of PAP decrease", "setting": "[4]; CH rats, intravascular, successively increasing doses up to 3 mg/kg", "result": "dose-dependent manner"}, {"measurement": "effect on PAP/PAH", "setting": "[4]; CH rats, single intravascular dose of DHEA 3 mg/kg", "result": "significant decrease in PAP; also recorded: significantly decreased PAH"}, {"measurement": "PAP", "setting": "[4]; CH-DHEA rats: oral DHEA 30 mg/kg every alternate day during 3 wk hypoxia, untreated CH 34.5±1.7", "result": "21.7±1.1", "unit": "mm Hg"}, {"measurement": "decrease of PAP", "setting": "[4]; CH-PAH rats, intravascular 0.03 mg/kg", "result": "~10", "unit": "%"}, {"measurement": "decrease in PAP", "setting": "[4]; CH-PAH rats, intravascular 0.3 mg/kg", "result": "~25", "unit": "%"}, {"measurement": "decrease in PAP", "setting": "[4]; CH-PAH rats, intravascular 3.0 mg/kg", "result": "~45", "unit": "%"}, {"measurement": "PAP, CH-DHEA vs control rats", "setting": "[4]; [6]", "result": "no difference"}, {"measurement": "effect of intravascular DHEA on PAP", "setting": "[4]; control animals", "result": "no effect"}, {"measurement": "effect on PAP/PAH (reversal)", "setting": "[4]; hypertensive CH rats, 1-wk oral DHEA 30 mg/kg every alternate day", "result": "partially but significantly reversed; also recorded: significantly decreased PAH"}, {"measurement": "effect on PAP (prevention)", "setting": "[4]; oral DHEA for 3 weeks during chronic hypoxia, vs CH rats", "result": "significant preventive effect; also recorded: decreased; also recorded: almost entirely prevent"}, {"measurement": "effect on PAP", "setting": "[4]; oral DHEA, normoxic rats", "result": "no effect"}, {"measurement": "PAP", "setting": "[4]; rats 3 weeks in CH, oral DHEA during the last week, no DHEA 35.9±1.9", "result": "21±1.1", "unit": "mm Hg"}, {"measurement": "effect on CH-induced decrease of BKCa protein", "setting": "BKCa [5]", "result": "This decrease was prevented; also recorded: up-regulation"}, {"measurement": "immunoreactive signal of BKCa-subunit, CH-DHEA higher than CH", "setting": "BKCa [5]; three separate comparisons", "result": "48.6±5.6", "unit": "%"}]}]}
